Measurements from PMC7408072 (Pharmaceutics, 2020).

Experiments:
[1] = cited from earlier work
Procedure: Peptide-based drugs are prone to chemical degradation when presented to enzymes during systemic circulation. Therefore, the stability of the peptide constructs was examined in serum-supplemented media and during incubation in a state-of-the-art in vitro BBB model made up of primary BCECs co-cultured with primary rat astrocytes. Despite their common peptide nature, the stability varied markedly. […] The half-life of ^125I-labelled Tat ([…]) in mouse serum h ...

[2] = cited from earlier work; remark: listed apart in the source
Source text: We detected 0.4% ± 0.1% of injected dose/g of TAMRA-Tat in mouse brain homogenate, which is in line with a previous study reporting 0.1% of injected dose/g of ^111In-DOTA-labelled Tat ([…]) following 1-h circulation in mice. Moreover, less TAMRA-Tat-NR2B9c and TAMRA-Tat-N-dimer appeared to accumulate in the brain compared to TAMRA-Tat. This observation is in agreement with the observed BBB permeation by the Tat-conjugated peptides in live mice, supporting our earlier notion that cargo conjugation to Tat impacts its resulting brain delivery.

[3] = differentiation medium (cell media supplemented with 10% fetal bovine serum (FBS)); details: 37 °C, up to 4 h
[4] = luminal incubation on bovine brain endothelial cells co-cultured with rat astrocytes in FBS-free differentiation medium; details: 37 °C, up to 4 h
[5] = tested on: bovine BCECs co-cultured with rat astrocytes; assay: Peptide uptake into endothelial cells and astrocytes by confocal microscopy after fixation (bovine BBB model); format: cell-based; details: 10 µM or 100 µM TAMRA, 3 h, fixed cells, confocal microscopy (Figure S4)
Procedure: […] TEER was measured at room temperature using an Endohm 12 cup (World Precision Instruments, Sarasota, FL, USA) connected to a Millicell-ERS device (Millipore, Bedford, MA, USA). TEER was measured before application of the peptides and after each experiment. The bovine model had initial TEER values ranging from 771 to 1332 Ω·cm^2, whereas the mouse model had initial TEER values ranging from 136 to 217 Ω·cm^2.
To visualize the TAMRA-peptide taken up by the endothelial cells and astrocytes, the remaining filters (one per batch) from the permeation study using the in vitro bovine BBB model were prepared for confocal microscopy. After removal of the peptide solutions, the cells were fixed with 3% paraformaldehyde in PBS for 15 min at room temperature with horizontal shaking (90 rpm). The cells were washed thrice with PBS prior to permeabilization in 0.1% Triton X-100 in PBS for 5 min and blocking in 2% BSA in PBS for 30 min at room temperature with horizontal shaking (90 rpm). The filter inserts were cut out, divided into smaller pieces, and transferred to a 48-well plate to stain zonula ocludens-1 (ZO-1) in the BCECs and F-actin in the astrocytes. Filter pieces with BCECs facing upwards were incubated with a primary antibody directed against ZO-1 (1:100 in PBS with 2% BSA; Thermo Fischer Scientific, Bedford, MA, USA, no. 617300) for 2 h at room temperature. Subsequently, the filters were washed thrice for 5 min in PBS with 2% BSA prior to 30 min incubation with an Alexa-488-conjugated secondary antibody (1:100 in PBS with 2% BSA; Thermo Fischer Scientific, Bedford, MA, USA, no. A11008). Filter pieces with astrocytes facing upwards were incubated with Alexa-488-conjugated phalloidin (1:133 in PBS with 2% BSA; Thermo Fischer Scientific, Bedford, MA, USA) for 30 min at room temperature and washed thrice for 5 min in PBS with 2% BSA. The filter pieces were mounted on glass slides under coverslips using Immu-Mount™ mounting media and imaged using single wavelength excitation a Zeiss 510 laser-scanning confocal microscope (Carl Zeiss, Jena, Germany).

YGRKKRRQRRR [^125I-labelled Tat]
half-life in mouse serum [1]: 2.7 min

GRKKRRQRRRPPQ [^111In-DOTA-labelled Tat]
half-life in human serum [1]: 8.8 h | brain level following 1-h circulation in mice [2]: 0.1 % of injected dose/g

TAMRA-KLSSIESDV
not cleaved [3]: 92.0% ± 12.6% of the initial concentration remaining after 4 h | not cleaved [4]: 95.7% ± 1.6% remaining after 4 h

TAMRA [reference compound]
uptake of TAMRA as a single entity into the endothelial cells or the astrocytes [5]: not internalized
